From US20050119301A1, “Treatment of restenosis” (priority 2001, published 2005)
“Also recorded” adds a separate entry of the source.

Key:
Sp-1 = experiment: Early growth response gene protein in VSMC, Western blotting; assay type: cell-based; settings: human VSMC
Procedure: (§1) To further examine the signalling pathway mediating the effect of this phytoestrogen in VSMC, the effect of Cpd. 7 on mitogen-activated protein (MAP) kinases (Erk, JUNK, p38) was determined by immunoprecipitation analysis and on early growth response genes (Egr-1, Sp-1) by Western blotting. […] 7 in a dose-dependent manner, while JUNK and p38 activity were not affected by either PDGF BB or Cpd. 7, though the cells strongly expressed both proteins as well as Erk. Egr-1 or Sp-1 proteins were not altered by either PDGF-BB or Cpd. 7.

Egr-1 = experiment: as above; assay type: cell-based; settings: human VSMC
Procedure: as §1

Erk = experiment: PDGF BB-induced MAP kinase activation in VSMC, immunoprecipitation analysis; assay type: cell-based; settings: human VSMC
Procedure: as §1

[1] = test system: IMA-derived human VSMC primed with PDGF BB; experiment: PDGF BB-induced VSMC DNA synthesis, proliferation and cell number; assay type: cell-based; settings: for proliferation of IMA cells primed with PDGF BB (in words): Cpd. 7 at concentrations as low as 0.1 nM; for effect of ER antagonist ICI 182780 on the inhibitory effect: ICI 182780 100 nmol/L
Procedure: Cell proliferation was induced by a variety of growth factors such as serum and platelet derived growth factor (PDGF).
Media was changed to LG serum-free DMEM and cells were treated with [^3H]-thymidine at 1 μCi/well for 3 hours. Cells were washed twice with ice cold Dulbecco's PBS. Next, ice cold 0.2M HClO4 (1 ml/well) was added and cells were incubated on ice for 30 min. Cells were then washed three times with 0.5 ml/well of ice cold 0.2M HClO4. Media (0.5 ml/well of 0.2 M NaOH) was replaced and cells were incubate at 37° C. After 1 hour, cells were treated with acetic acid (6%, 0.2 ml/well), transferred to scintillation vials with 3 ml scintillation liquid (Instagel) and counted for 2 min per vial.
The effect of Cpd. 5 and Cpd. 7 was tested further in IMA-derived human VSMC primed with PDGF BB instead of serum. […] (FIG. 12). This effect was equivalent to that observed with estradiol. Cpd.
In further experiments Cpd. […] 7 at 100 nmol/L), indicating ER-mediation. […] 7 (1-100 nmol/L).

E-selectin = experiment: Inhibition of E-selectin expression in activated HUVEC; assay type: cell-based, human; settings: pre-incubated 2 or 18 hours prior to TNF stimulation; Cpd. 8 especially at 10 μg/ml, Cpd. 12 especially at 1 and 10 μg/ml
Procedure: The ability of isoflavone compounds and derivatives to inhibit the expression of E-selectin was measured by the protocol set out in Litwin et al. (1997) and is incorporated herein by reference.
FIG. 18 provides comparative data on the ability of a number of isoflavone compounds to inhibit the expression of E-selectin conducted in accordance with the method of Litwin et al. The interaction of isoflavone metabolite Cpds. 8 and 12 on human umbilical vein endothelial cells, activated by […], was measured against the concentration of the compound. The cells were pre-incubated for either 2 or 18 hours prior to TNF stimulation. In comparison with a DMSO control, isoflavone Cpd. […] Isoflavone Cpd.

C57/B16 mice = experiment: Mouse model of neointimal hyperplasia after mechanical endothelial damage; assay type: in vivo; settings: for effect on neointimal proliferation (in words) / neointimal proliferation, intimal thickness: 4 weeks after surgery; for neointimal proliferation, intimal thickness: in chow, surgery only 50±5%, no surgery 5±1%
Description: The key feature of atherosclerosis in humans is vascular smooth muscle cell (VSMC) migration from the arterial media to the intima, followed by proliferation within the intima. The animal model of atherosclerosis used in this experiment aimed to induce VSMC migration and neointimal proliferation by mechanical damage to the endothelium. A probe was introduced into the femoral artery of the mouse and was passed through the iliac artery to the bifurcation of the aorta. The probe was then withdrawn and the femoral artery ligated to prevent haemorrhage. Colateral circulation prevents any limb-associated ischaemia. Neointimal proliferation occurred in the iliac artery over the following 4 weeks.
Proliferation was enhanced by feeding the mouse cholesterol during this time (commencing one week before surgery). At four weeks, the mice were sacrificed and the iliac vessels on both sides are harvested (the non-operated vessel was used as a control). Neointimal proliferation is expressed as the ratio of the intimal area to the intimal plus media area.
Atherosclerosis was induced in the femoral artery of each mouse by mechanically removing the endothelium using a probe. The ability of isoflavone compounds to inhibit the atherosclerotic response was assessed by comparing treatment and placebo groups. C57/B16 mice (8-10 week old male) were anaesthetized, and the right femoral artery was de-endothilialized using a dissection microscope. These mice were also fed with a 2% cholesterol diet to enhance the progression of the disease. The mice were sacrificed at week 4. Their treated (right) and control (left) arteries were both collected and fixed in formalin for histopathological evaluation.
The mice were fed a diet of 2% cholesterol mixed with normal mouse chow for a week prior to surgery. The treatment groups were fed the chow with Cpd. 5 or Cpd. 12 or Cpds. 5+12. Mice were anaesthetised with Avertin, and angioplasty of the femoral artery was performed. After surgery, the mice were moved onto a warm mat in a quiet, darkened area and their recovery closely monitored. They were housed in sterile cages with sterile bedding to avoid infection. The mice continued a diet of cholesterol mixed with normal mouse chow for the next 4 weeks. The mice were euthanased at 4 weeks postsurgery. Their femoral arteries were collected for pathological examination. Sections were evaluated by image analysis to determine the area of the various sections of the arterial wall, and the numbers of cells in each area. The primary parameter being evaluated was the increase in the intimal area, expressed as the ratio of the area of the intima versus the area of the intima plus media. The interval sections (every 50 μm, or every ten sections) were mounted and stained with H & E. The cross-sectional areas of the endothelium, intima and media were evaluated, using image analysis.

In the case of `Oc1ccc(C2COc3cc(O)ccc3C2O)cc1` (stereo not drawn) [Cpd. 7], the Sp-1 protein (Sp-1) is reported as “not altered”, the Egr-1 protein (Egr-1) is reported as “not altered” and the “PDGF BB-induced Erk activation” value (Erk) is reported as “significantly inhibited by Cpd. 7 in a dose-dependent manner”. The “PDGF BB-induced increases in cell number” value ([1]; 1-100 nmol/L) was “partly but significantly reduced”, the “proliferation of IMA cells primed with PDGF BB (in words)” value [1] was “inhibited proliferation” and the inhibition at 0.001 µM ([1]; Homo sapiens, VSMC, 3 h, 1 nmol/L, read-out: inhibition of PDGF BB-induced DNA synthesis ([3H]-thymidine incorporation)) was 10%. The inhibition at 0.01 µM ([1]; Homo sapiens, VSMC, 3 h, 10 nmol/L, read-out: inhibition of PDGF BB-induced DNA synthesis ([3H]-thymidine incorporation)) was 17%, the inhibition at 0.1 µM ([1]; Homo sapiens, VSMC, 3 h, 100 nmol/L, read-out: inhibition of PDGF BB-induced DNA synthesis ([3H]-thymidine incorporation)) was 17% and the “effect of ER antagonist ICI 182780 on the inhibitory effect” value ([1]; compound at 100 nmol/L) was “partly abolished”. For the same compound, the “effect of ER antagonist ICI 182780 on the inhibitory effect” value ([1]; compound at 1-10 nmol/L) was “completely abolished”.

`Oc1ccc(C2COc3cc(O)ccc3C2O)cc1` (stereo not drawn) [Cpd. 8] was tested, and the “inhibition of E-selectin expression (in words)” value (E-selectin) was “very good inhibition of E-selectin expression”.

`O=C1c2ccc(O)cc2OCC1c1ccc(O)cc1` (stereo not drawn) [Cpd. 5] was tested, and the “proliferation of IMA cells primed with PDGF BB (in words)” value [1] was “no observed effect on cellular proliferation”, the “reduction of neointimal area” value (C57/B16 mice; 4 weeks) was “approximately 50%” and the “effect on neointimal proliferation (in words)” value (C57/B16 mice) was “significantly reduced”. The “neointimal proliferation, intimal thickness” value (C57/B16 mice) was 30±6%.

For `Oc1ccc(C2=Cc3ccc(O)cc3OC2)cc1` [Cpd. 12], the “inhibition of E-selectin expression (in words)” value (E-selectin) was “excellent inhibition of E-selectin expression”, the “effect on neointimal proliferation (in words)” value (C57/B16 mice) was “no detectable effect; also recorded: no appreciable effect on neointimal proliferation” and the “neointimal proliferation, intimal thickness” value (C57/B16 mice) was 50±29%.
